These are literature values, as cited in patent publication US20100240626A1, “ANTIEMETIC-ORAL CONTRACEPTIVE COMBINATION” (Lupin Limited, priority 2007, published 2010).

The conditions of this series: 0.75 mg of levonorgestrel administered.

In the case of `C#C[C@]1(O)CC[C@H]2[C@@H]3CCC4=CC(=O)CC[C@@H]4[C@H]3CC[C@@]21CC` [levonorgestrel], the patients experiencing nausea result was “about 23.1%” and the patients experiencing vomiting was 5.6%.
